Results reported in patent US6790603B2, “Compositions for the storage of platelets” (Bioenergy, Inc., priority 1999, dated 2004).

How the values were obtained:
platelets [1] = test: P-selectin expression in stored platelets, basal and after 10 nM thrombin challenge (flow cytometry); type: cell-based
Experimental: A basal measurement of spontaneous activation is obtained and the cells are then challenged with an agonist. The difference between cells challenged to activate minus the basal measurement is a measure of cell function. In the preferred embodiment, the agonist is 10 nM thrombin. P-selectin expression in response to a challenge of 10 nM thrombin is a highly accurate and quantitative method to assess platelet function using flow cytometry techniques. A monoclonal antibody to the platelet GPIIbIIIa receptor (Becton-Dickinson) is conjugated with green fluorescence, marking all platelets with a green detection. […] About 10,000 to 25,000 platelets are counted and measured for P-selectin expression and the % positive cells are defined as activated platelets that express P-selectin. Platelets that are activated are not capable of being activated a second time; that is, they are essentially nonfunctional. It was proposed years ago by Dawson (Transfusion 21:215-218. (1981)) that ribose at the concentration of 15 mM is beneficial to stored whole blood. It was assumed that ribose functioned by raising the energy levels of the cells, as discussed at length in U.S. Pat. No. 6,159,942. […] Platelet function was assessed by ATP secretion, platelet aggregation, P-selectin expression, platelet count and pH. Platelet function was measured every 24 hours. […]

platelets [2] = test: ATP secretion in response to 10 nM thrombin (luciferin/luciferase assay); type: cell-based
Description: The platelet dense granules shown in FIG. 1 contain ATP which is released in response to platelet agonists such as thrombin, collagen or adenosine diphosphate (ADP). The release reaction of ATP from platelets serves as another method to monitor platelet function. There are many methods to analyze ATP. A convenient method is the well known luciferin/luciferase reaction (Sigma Chemical, St. Louis). This assay is derived from the light producing system of the firefly. The substrate luciferin, in the presence of ATP, is cleaved by the enzyme luciferase, accompanied by the emission of light. The emitted light is measured by a photomultiplier tube
Platelet suspensions containing about 350 units in 4 μl were mixed with 10 μl luciferin/luciferase reagent. An agonist is injected. As the platelet dense granules release ATP, the bioluminescent reaction occurs, which is measured by the photomultiplier tube. […] The rate of reaction is recorded and as platelet function decays, the rate decays. Total ATP was measured by lysing the cells with Triton and determining ATP content. The results as presented in Table III are expressed as intact rate of ATP secretion.

platelets [3] = test: Platelet aggregation on thrombin challenge (optical density / aggregometer); type: cell-based
Experimental: As a second measure of the effect of ribose on platelets, platelet aggregation was estimated. Platelet aggregation is a crucial function of platelet activity; platelets that cannot aggregate are essentially nonfunctional. Platelets were stored as above.
The optical density of the suspension was measured before and after thrombin challenge.
Platelet aggregation was measured with a platelet aggregometer (Chronolog, Inc., Irvine, Calif.). Platelet-rich, turbid suspensions were stirred in a cuvette and the transmittance of light through the sample relative to a platelet poor blank is recorded. When a aggregating agent is added, activated platelets with exposed fibrinogen receptors (GPIIbIIIa) are brought in close contact with each other in a medium containing calcium and fibrinogen and form increasingly large platelet aggregates, accompanied by a decrease in turbidity. The change in optical density was then translated by the instrument to percent aggregation. Simple stated, as platelets clump, more light passes through the cuvette.

bacteria = test: Bacterial contamination of platelet storage solution (colony counts in Petri dishes); conditions: D-Ribose added to storage cocktail
Experimental: Bacterial contamination was measured by colony counts in standard Petri dishes that had been inculated with the test solution. It is assumed that the millimolar glucose concentration in most platelet storage solutions contributes to the growth of bacteria. As noted above, Murphy (Table II) discloses a glucose-free solution for the storage of platelets. Elimination of reduction of glucose levels from millimolar to micromolar concentrations has a profound effect in reducing bacterial contamination, however, platelet function at five days, as measured by ATP secretion and P-selectin expression, was poor.

platelets [4] = test: Preservation of function in stored platelets (ATP secretion, aggregation, P-selectin expression, pH, platelet count); type: cell-based
Experimental: It is known that other pentoses may have similar effects as D-Ribose, either through intracellular conversion to ribose or a direct effect. Ribulose-5-phosphate, xylulose-5-phosphate and xylitol were tested for preservation of activity in stored platelets according to the methods of examples 1 to 6.
Ribulose-5-phosphate was purchased from Sigma Chemical (St. Louis) and added to the standard CPD platelet storage solution. The following parameters of function were tested: ATP secretion in response to 10 nM thrombin; platelet aggregation; P-selectin expression in response to thrombin challenge; pH change; and platelet count. Platelet concentrate bags were obtained from a transfusion center within hours of collection. Aliquots were sampled from the platelet bags and concentrations of ribulose-5-phosphate were added for a final concentration from 1.5 mM down to 150 pM. Controls without ribulose-5-phosphate were analyzed for comparison. Samples were analyzed every 24 hours for platelet function.

[5] = 30 grams of ribose each day; cited from earlier work
whole blood = conditions: 15 mM ribose; cited from earlier work

O=C[C@H](O)[C@H](O)[C@H](O)CO [D-Ribose]
Preservation of function (P-selectin expression test) (platelets [1]; 150 pM D-Ribose, five days storage): ineffective | % positive (activated) cells (platelets [1]; 153 nM D-Ribose, three days storage, basal): 5% | Preservative effect on ATP secretion (platelets [2]; 1.5 nM D-Ribose): no preservative effect | Rise in total ATP content of treated cells (platelets [2]; 150 nM D-Ribose): more than 10% | Toxicity to platelets (platelets [2]; 15 mM D-Ribose): toxic to platelets | Mean ATP secretion activity, % of baseline (platelets [2]; optimal D-Ribose (150 nM), day 7): > 80% | Platelet samples with aggressive aggregation response (platelets [3]; day 3, 10 nM thrombin): all five | Platelet samples responding (aggregation) (platelets [3]; day five, thrombin): four out of five | Platelet samples able to aggregate (platelets [3]; day seven, thrombin): three out of five | Aggregation on thrombin challenge (platelets [3]; platelets stored in 150 pM D-Ribose): no aggregation | Aggregation on thrombin challenge (platelets [3]; platelets stored in 150 nM D-Ribose): strong aggregation | Aggregation on thrombin challenge (platelets [3]; platelets stored in 15 μM D-Ribose): very weak effect | Aggregation on thrombin challenge (platelets [3]; platelets stored in 1.5 mM D-Ribose): no aggregation | Bacterial contamination (bacteria): lower incidence of bacterial contamination | Platelet function compared with storage in presence of glucose (platelets [4]; 150 nM D-Ribose, glucose eliminated or reduced to micromolar): similar | Tolerability of ingestion [5]: no ill effects | Effect on stored whole blood (whole blood): beneficial

O=C(CO)[C@H](O)[C@H](O)COP(=O)(O)O [ribulose-5-phosphate, Ribulose-5-phosphate]
Platelet function parameters versus controls (platelets [4]; 1.5 mM down to 150 pM, analyzed every 24 hours): No difference from controls

OC[C@@H](O)[C@H](O)[C@@H](O)CO [xylitol]
Preservation of platelet function (platelets [4]; trends inconsistent): some benefit

O=C(CO)[C@@H](O)[C@H](O)COP(=O)(O)O [xylulose-5-phosphate, Xylulose-5-phosphate]
Platelet aggregation (platelets [3]; five days storage): weak
